# Tests used:
# 5-HT1A receptors = target: T1, 5-HT1A receptors (Homo sapiens, UniProt P08908); conditions: reported, J. Med. Chem. 2000; cited from earlier work
# T1 sequence (P08908 1-422): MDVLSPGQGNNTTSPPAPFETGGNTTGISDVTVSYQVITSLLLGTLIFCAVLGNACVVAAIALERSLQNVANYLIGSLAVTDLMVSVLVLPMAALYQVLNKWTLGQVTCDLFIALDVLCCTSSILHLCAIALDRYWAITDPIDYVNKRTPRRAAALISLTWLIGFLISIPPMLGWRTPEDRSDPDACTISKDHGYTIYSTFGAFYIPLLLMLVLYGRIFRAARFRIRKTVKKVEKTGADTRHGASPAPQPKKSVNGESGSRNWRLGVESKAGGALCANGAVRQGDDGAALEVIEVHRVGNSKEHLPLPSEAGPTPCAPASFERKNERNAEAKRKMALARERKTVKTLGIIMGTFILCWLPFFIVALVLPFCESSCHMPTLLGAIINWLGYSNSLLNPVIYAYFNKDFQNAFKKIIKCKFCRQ
# human α1A-adrenoceptors = target: T2, human α1A-adrenoceptors (Homo sapiens, UniProt P35348); assay: Radioligand-receptor binding assay, human recombinant α1A-adrenoceptor, [3H]prazosin
# T2 sequence (P35348 1-466): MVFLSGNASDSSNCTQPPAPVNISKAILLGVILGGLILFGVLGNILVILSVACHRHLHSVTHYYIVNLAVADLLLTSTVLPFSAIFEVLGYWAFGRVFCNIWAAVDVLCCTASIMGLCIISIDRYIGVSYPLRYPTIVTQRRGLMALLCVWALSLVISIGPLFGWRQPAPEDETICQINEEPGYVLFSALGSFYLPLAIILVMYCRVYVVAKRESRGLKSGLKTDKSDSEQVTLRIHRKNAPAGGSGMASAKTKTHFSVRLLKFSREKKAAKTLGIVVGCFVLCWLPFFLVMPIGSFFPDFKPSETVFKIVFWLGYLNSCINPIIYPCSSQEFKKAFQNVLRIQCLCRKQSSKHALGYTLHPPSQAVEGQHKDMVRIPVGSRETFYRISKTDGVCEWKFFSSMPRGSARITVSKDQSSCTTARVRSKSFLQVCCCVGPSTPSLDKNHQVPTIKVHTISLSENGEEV
# Protocol: Chinese hamster ovary (CHO) cells which had been stably transfected with human α1A, α1B, or α1D-adrenoceptors (Keffel et al., Biochem. Biophys. Res. Commun., 2000, 272, 906–11) were cultured in an atmosphere of 5% CO2/95% air at 37° C. in F-12 HAM medium supplemented with 10% heat-inactivated fetal calf serum, 1 mM glutamine, 100 U/ml penicillin and 0.1 mg/ml streptomycin. Selection pressure was maintained by regular addition of geneticin to the culture medium.
# Competitive radioligand binding to the cloned subtypes of […] was performed using [^3H]prazosin as the radioligand as described by Michel et al, Br. J. Pharmacol., 98, 883–889 (1989) with minor modifications. Experiments were performed in binding buffer consisting of 50 mM Tris, 10 mM MgCl2 and 0.5 mM EDTA at pH 7.5 in a total assay volume of 1000 μl. The protein content typically was 40–60 μg/assay. The mixtures were incubated at 25° C. for 45 minutes. Incubations were terminated by rapid vacuum filtration over GF/C filters followed by two washes of the filters each with 10 ml ice-cold incubation buffer. Non-specific binding was defined as binding in the presence of 10 μM phentolamine.
# The IC50 & Kd were estimated by using the non-linear curve fitting program using G Pad Prism software. The value of inhibition constant Ki was calculated from competitive binding studies by using Cheng & Prusoff equation [Cheng & Prusoff, Biochem. Pharmacol., 22, 3099–3108 (1973)], Ki=IC50/(1+L/Kd), where L is the concentration of [^3H] prazosin used in the particular experiment. Kd of [^3H] prazosin was determined from saturation binding studies. The values were tabulated as mean±SEM of pKi values, where pKi is the −log of Ki value.
# [1] = target: T3, rat α1D-adrenoceptor (aorta) (Rattus norvegicus, UniProt P23944); assay: In-vitro functional study, agonist-induced contractile response on isolated rat aorta; format: biochemical
# T3 sequence (P23944 1-561): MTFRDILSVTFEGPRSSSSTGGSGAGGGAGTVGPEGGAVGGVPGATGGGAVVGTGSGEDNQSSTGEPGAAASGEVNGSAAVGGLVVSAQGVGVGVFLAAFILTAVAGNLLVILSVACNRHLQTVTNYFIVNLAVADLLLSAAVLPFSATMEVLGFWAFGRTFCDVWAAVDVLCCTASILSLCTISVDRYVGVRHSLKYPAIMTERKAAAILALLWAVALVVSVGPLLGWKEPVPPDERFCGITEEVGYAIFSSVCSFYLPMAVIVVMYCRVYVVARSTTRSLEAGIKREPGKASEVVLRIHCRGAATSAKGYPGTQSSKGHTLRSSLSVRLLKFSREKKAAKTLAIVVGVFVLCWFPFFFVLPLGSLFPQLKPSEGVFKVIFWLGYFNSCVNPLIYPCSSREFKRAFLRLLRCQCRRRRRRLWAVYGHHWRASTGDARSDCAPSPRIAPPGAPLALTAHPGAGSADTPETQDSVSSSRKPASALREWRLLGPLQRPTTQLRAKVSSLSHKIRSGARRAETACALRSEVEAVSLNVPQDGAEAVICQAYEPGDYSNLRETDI
# Protocol: Aorta, prostate and spleen tissues were isolated from urethane anaesthetized (1.5 gm/kg) male wistar rats. Isolated tissues were mounted in organ bath containing Krebs Henseleit buffer of following compostion (mM): NaCl 118; KCl 4.7; CaCl2 2.5; MgSO4.7H2O 1.2; NaHCO3 25; KH2PO4 1.2; glucose 11.5. Buffer was maintained at 37° C. and aerated with a mixture of 95% O2 and 5% CO2. A resting tension of 2 g (aorta) or 1 g (spleen and prostate) was applied to tissues. Contractile response was monitored using a force displacement transducer and recorded on chart recorders. Tissues were allowed to equilibrate for 2 hours. At the end of equilibration period, concentration response curves to norepinephrine (aorta) and phenylepinephrine (spleen and prostate) were obtained in absence and presence of tested compound (at concentrations of […]). Antagonist affinities were calculated and expressed as pKB vales in Table II.
# To compare the differences in pKB at the α1-arenrenoceptor subtypes one-way ANOVA followed by Dunett ‘t’ test was applied. A p<0.05 was considered statistically significant.
Compound,affinity for 5-HT1A receptors (5-HT1A receptors),fold greater affinity for α1A-adrenoreceptor subtype than the corresponding (S)-isomer (human α1A-adrenoceptors; human recombinant receptors) [fold],"Ki (human α1A-adrenoceptors; human recombinant receptors in CHO cells, mean ± SEM, read-out: pKi α1A (converted)) [nM]",Kb [1] [nM],melting point [°C]
"CCOc1ccccc1OCCNC(C)Cc1ccc(OC)c(S(N)(=O)=O)c1 (single isomer, unassigned; (-)) [Tamsulosin, (−) isomer of 5-[2-[2-(2-ethoxyphenoxy)ethylamino]-2-methylethyl]-2-methoxybenzene sulfonamide, reference compound]",subnanomolar affinity,,,,
"CCOc1ccccc1OCCN[C@H](C)Cc1ccc(O)c(S(N)(=O)=O)c1 [Formula I, R (−)-5-[2-[[2-(2-ethoxyphenoxy)ethyl]amino]propyl]-2-hydroxybenzenesulfonamide]",,102,0.0219,0.00589,159.5

# From patent US7084301B2 (Ranbaxy Laboratories Limited, priority 2003, dated 2006)
